The values below come from patent US5962472A, “Use of 4-phenyl-3,6-dihydro-2H-pyridyl derivatives” (Hoffmann-La Roche Inc., priority 1996, dated 1999).

For experiment [1], the target named is NMDA receptor (3H-MK801 binding, high and low affinity binding sites). Kind of experiment: 3H-MK801 (Dizocilpine) binding in vitro, rat whole brain membranes. As to conditions: 5 nM 3H-MK-801, 2 hours, room temperature. On the procedure:
3H-MK801 (Dizocilpine) binding in vitro
The whole brain from 150-200 g male rats, without cerebellum and without medulla oblongata was dissected on ice. The tissue was then homogenized with an Ultra-Turrax maximum speed during 30 seconds at 4° C. in 50 volumes of cold Tris HCl 50 mM, EDTA disodium 10 mM, pH=7.4 buffer (wet weight/v). The homogenate was centrifuged at 48'000 x g (20'000 rpm, SS34, Sorvall RC5C) for 10 minutes. The pellet was rehomogenized with the same volume of buffer and the homogenate incubated at 37° C. for 10 minutes. After centrifugation as above, the pellet was rehomogenized with the same volume of buffer and frozen at -80° C. in 35 ml fractions for at least 16 hours and not more than 2 weeks.
For the binding experiment, the homogenate was centrifuged as above and the pellet was washed 3 times by homogenization in 25 volumes of cold Tris HCl 5mM, pH=7.4 buffer (Ultra-Turrax, maximum speed, 30 seconds) and centrifugation as above. The final pellet was rehomogenized in 25 volumes of buffer (original wet weight) and used as such in the assay. The final concentration of membrane in the assay was 20 mg/ml (wet weight).
The incubation was performed in the presence of 1 nM glutamate, glycine and spermidine. MK-801, (+)-[3-3H(N)], NEN (NET-972) 20Ci/mmol, was used at 5 nM final concentration. Non specific binding was determined in presence of 10ONM 1-[1-(2-Thienyl)cyclohexyl]piperidine (TCP). After 2 hours of incubation at room temperature, the suspension was filtered (Whatmann GF/B, soaked in 0.1% polyethylenimine for 2 hours) and washed 5 times with 3 ml of cold Tris HCl 5mM, pH=7.4 buffer. The air-dried filters were counted with 10 ml of Ultima-gold (Packard) in a Tri-Carb 2500 TR scintillation counter after agitation.
The radioactive decays per minute (DPM) were transformed in % of specific binding and these values were treated by a non linear regression calculation program (BINDING, H. Affolter, Switzerland) which provided the IC50 values for the low and high affinity binding sites (=concentrations producing half maximal inhibition at the respective sites). Each experiment was repeated at least three times and the final IC50 values were calculated as the mean +/-standard deviation of the individual experiments.
Reference: R. W. Ransom and N. L. Stec. Journal of Neurochemistry 51, 830-836, 1988.

A further experiment deals with T1, NMDAR1C--NMDAR2B (Rattus norvegicus, UniProt P35439+Q00960).
T1 construct: expressed in transfected cells; host or cells: Xenopus laevis oocytes, mRNA injected 1:1
T1 sequence (Q00960 27-1482, other chains not shown): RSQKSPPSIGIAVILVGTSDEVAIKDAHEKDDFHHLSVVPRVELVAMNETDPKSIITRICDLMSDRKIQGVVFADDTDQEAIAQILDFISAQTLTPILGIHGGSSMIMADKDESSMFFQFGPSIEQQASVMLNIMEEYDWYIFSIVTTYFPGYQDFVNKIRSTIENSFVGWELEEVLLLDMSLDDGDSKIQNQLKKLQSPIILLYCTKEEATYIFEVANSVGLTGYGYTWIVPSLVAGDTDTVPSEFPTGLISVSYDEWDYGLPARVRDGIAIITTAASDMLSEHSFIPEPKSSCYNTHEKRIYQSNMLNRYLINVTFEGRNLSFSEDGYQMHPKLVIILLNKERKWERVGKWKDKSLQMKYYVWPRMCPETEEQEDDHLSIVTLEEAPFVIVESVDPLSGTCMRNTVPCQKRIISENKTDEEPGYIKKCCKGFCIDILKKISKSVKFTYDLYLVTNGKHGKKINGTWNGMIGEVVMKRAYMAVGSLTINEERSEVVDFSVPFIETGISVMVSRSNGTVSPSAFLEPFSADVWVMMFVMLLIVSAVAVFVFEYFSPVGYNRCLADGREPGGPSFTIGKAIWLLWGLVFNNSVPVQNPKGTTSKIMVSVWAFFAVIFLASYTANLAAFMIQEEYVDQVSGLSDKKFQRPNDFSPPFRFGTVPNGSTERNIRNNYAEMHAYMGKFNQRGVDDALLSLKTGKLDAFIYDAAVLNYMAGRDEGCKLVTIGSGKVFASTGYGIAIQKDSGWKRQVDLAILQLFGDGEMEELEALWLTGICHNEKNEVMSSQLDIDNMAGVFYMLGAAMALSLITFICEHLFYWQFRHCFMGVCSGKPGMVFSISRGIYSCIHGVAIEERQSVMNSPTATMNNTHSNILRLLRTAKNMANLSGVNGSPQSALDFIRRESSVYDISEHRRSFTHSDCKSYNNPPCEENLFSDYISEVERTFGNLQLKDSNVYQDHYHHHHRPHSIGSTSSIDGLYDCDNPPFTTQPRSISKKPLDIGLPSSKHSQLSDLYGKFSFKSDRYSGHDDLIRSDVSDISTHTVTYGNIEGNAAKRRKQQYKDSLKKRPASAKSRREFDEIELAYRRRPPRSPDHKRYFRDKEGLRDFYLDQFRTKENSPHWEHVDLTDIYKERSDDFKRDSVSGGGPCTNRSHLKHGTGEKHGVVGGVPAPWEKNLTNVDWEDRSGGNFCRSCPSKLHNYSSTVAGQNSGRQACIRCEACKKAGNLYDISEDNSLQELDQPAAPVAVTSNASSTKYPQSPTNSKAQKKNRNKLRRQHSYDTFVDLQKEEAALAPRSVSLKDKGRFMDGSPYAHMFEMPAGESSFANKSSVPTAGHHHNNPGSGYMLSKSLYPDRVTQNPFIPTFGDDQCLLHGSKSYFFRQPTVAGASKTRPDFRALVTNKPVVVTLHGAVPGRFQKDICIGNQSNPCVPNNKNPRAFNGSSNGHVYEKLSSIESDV
In words: Electrophysiology on recombinant NMDA receptors NMDAR1C-NMDAR2B expressed in Xenopus oocytes. It is filed as cell-based. As to conditions: -80 mV, 15 μM Asp plus 0.2 μM Gly, read-out: Electrophysiology IC50 NMDAR 1C u. 2B. An excerpt:
(§1) Electrophysiology on recombinant NMDA receptors
(§2) cDNA clones coding for the subunits NMDAR1C and NMDAR2A of the NMDA receptor (see Hollmann and Heinemann, 1994, Annu. Rev. Neurosci. 17:31 for nomenclature of NMDA receptor subunits) were isolated from a rat brain λgt11 cDNA library as published elsewhere (Sigel et al., 1994, J. Biol. Chem. 269:8204). The clone for the subunit NMDAR2B of the rat brain NMDA receptor was obtained from S. Nakanishi (Kyoto, Japan). The cDNAs were transcribed, capped and poly(A^+)-tailed as described previously (Malherbe et al., 1990, Mol. Brain Res. 8: 199). Oocytes of South African frogs (Xenopus laevis) were used for expressing either a combination of the NMDAR1C and NMDAR2A subunits or the NMDAR1C and NMDAR2B subunits. Approximately 3 fmol of a 1:1 mixture of the respective mRNA species were injected into every oocyte. Four to five days later the ion current through the NMDA receptor channels was measured in voltage clamp experiments (see Methfessel et al., 1986, Pfliigers Arch. 407:577 for the methods of oocyte expression and voltage-clamping). The membrane potential was clamped to -80 mV and the receptors were activated by applying a modified Ringer's solution containing the NMDA-receptor agonists L-asparatate (Asp) and glycine (Gly). Different agonist concentrations were chosen for either subunit combination to account for the different agonist sensitivities of the two types of receptors (70 μM Asp plus 2.5 μM Gly for NMDARlC--NMDAR2A and 15 μM Asp plus 0.2 μM Gly for NMDAR1C--NMDAR2B). The agonists were applied for 15 s intervals once every 2.5 min by rapid superfusion of the oocyte with agonist containing solution and the amplitude of the agonist-evoked current was measured immediately before the end of each application. After a series of initial control applications, increasing concentrations of the antagonist to be tested were added to both, the basal Ringer's and the agonist containing solution. […] Figures for the IC50 in all other cases are arithmetic mean values of individual IC50 s determined by the logistic curve fits.

For the next experiment, the target named is T2, NMDAR1C--NMDAR2A (Rattus norvegicus, UniProt P35439+Q00959).
T2 construct: expressed in transfected cells; host or cells: Xenopus laevis oocytes, mRNA injected 1:1
T2 sequence (Q00959 23-1464, other chains not shown): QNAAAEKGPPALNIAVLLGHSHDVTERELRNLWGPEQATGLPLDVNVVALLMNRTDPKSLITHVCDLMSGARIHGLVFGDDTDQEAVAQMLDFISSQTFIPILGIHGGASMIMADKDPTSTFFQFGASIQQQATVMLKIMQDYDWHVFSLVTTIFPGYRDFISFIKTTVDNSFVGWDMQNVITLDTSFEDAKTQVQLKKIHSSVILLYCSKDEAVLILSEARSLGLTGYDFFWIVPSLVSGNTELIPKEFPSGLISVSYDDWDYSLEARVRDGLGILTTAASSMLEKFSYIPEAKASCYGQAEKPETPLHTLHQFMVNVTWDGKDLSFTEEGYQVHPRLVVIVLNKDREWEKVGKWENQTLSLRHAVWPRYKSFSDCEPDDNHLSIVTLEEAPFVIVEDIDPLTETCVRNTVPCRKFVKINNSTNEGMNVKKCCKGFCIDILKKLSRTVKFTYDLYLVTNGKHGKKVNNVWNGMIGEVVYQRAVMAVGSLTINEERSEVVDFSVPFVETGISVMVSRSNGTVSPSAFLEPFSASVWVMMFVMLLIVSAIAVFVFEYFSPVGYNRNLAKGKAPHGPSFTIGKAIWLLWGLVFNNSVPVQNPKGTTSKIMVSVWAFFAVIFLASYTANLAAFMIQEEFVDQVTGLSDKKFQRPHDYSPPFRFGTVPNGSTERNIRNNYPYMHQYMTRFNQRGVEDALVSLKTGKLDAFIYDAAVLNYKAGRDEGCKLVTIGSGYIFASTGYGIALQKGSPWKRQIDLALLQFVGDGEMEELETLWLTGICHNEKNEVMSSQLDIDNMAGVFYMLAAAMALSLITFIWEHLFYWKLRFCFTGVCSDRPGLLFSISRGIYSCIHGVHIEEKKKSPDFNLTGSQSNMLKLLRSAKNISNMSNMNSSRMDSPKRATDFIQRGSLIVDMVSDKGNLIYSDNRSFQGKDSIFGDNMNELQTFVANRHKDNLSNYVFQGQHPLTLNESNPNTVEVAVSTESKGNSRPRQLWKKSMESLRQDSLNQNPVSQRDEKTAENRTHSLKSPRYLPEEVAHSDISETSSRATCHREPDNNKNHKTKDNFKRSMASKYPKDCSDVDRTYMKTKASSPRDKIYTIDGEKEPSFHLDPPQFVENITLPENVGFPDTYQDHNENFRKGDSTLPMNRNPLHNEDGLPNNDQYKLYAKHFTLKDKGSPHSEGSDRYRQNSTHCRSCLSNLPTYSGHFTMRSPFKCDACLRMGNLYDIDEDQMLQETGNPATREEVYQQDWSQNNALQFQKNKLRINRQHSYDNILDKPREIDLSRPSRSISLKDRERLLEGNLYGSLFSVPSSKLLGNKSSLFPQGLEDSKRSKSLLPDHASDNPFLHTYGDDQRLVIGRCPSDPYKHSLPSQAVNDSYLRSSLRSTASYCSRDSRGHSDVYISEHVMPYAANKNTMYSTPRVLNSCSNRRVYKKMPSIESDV
Kind of experiment: Electrophysiology on recombinant NMDA receptors NMDAR1C-NMDAR2A expressed in Xenopus oocytes. The following applies: -80 mV, 70 μM Asp plus 2.5 μM Gly, > = highest tested concentration (solubility limit), read-out: Electrophysiology IC50 NMDAR 1C u. 2A. It is filed as cell-based.
From the text: as §1, §2

[2] abbreviates: high affinity binding site, read-out: 3H-MK801 IC50 high.
The mark [3] stands for this setting: low affinity binding site, read-out: 3H-MK801 IC50 low.

Counter-ions that a name gives are not always drawn. Like-named read-outs stand apart in the source and are kept apart here.

In general, IC50 refers to the midpoint of a concentration-inhibition curve. Take `NC(=O)Nc1ccc(OCC(O)CN2CC=C(c3ccc(F)cc3)CC2)cc1` (stereo not drawn) [A, [4-[3-[4-(4-Fluoro-phenyl)-3,6-dihydro-2H-pyridin-1-yl]-2-hydroxy-propoxy]-phenyl]-urea]: the IC50 is 0.02 µM in experiment [1] (setting [2]) and 55 µM in experiment [1] (setting [3]).
The corresponding values for `CS(=O)(=O)Nc1ccc(OCCCN2CC=C(c3ccc(F)cc3)CC2)cc1` [B, N-[4-[3-[4-(4-Fluoro-phenyl)-3,6-dihydro-2H-pyridin-1-yl]-propoxy]-phenyl]-methanesulfonamide hydrochloride (1:1)] are 0.02 µM and 75 µM.
For `CS(=O)(=O)Nc1ccc(OCC(O)CN2CC=C(c3ccc(F)cc3)CC2)cc1` (stereo not drawn) [C, N-[4-[3-[4-(4-Fluoro-phenyl)-3,6-dihydro-2H-pyridin-1-yl]-2-hydroxy-propoxy]-phenyl]-methanesulfonamide] the same measures were 0.02 µM and 69 µM.
On to `CCOC(=O)Nc1ccc(OCC(O)CN2CC=C(c3ccc(F)cc3)CC2)cc1` (stereo not drawn) [D, [4-[3-[4-(4-Fluoro-phenyl)-3,6-dihydro-2H-pyridin-1-yl]-2-hydroxy-propoxy]-phenyl]-carbamic acid ethyl ester], for which the IC50 is 0.136 µM in experiment [1] (setting [2]), 320 µM in experiment [1] (setting [3]), 0.63 µM on NMDAR1C--NMDAR2B and above 20 µM on NMDAR1C--NMDAR2A.
Turning to `CC(=O)Nc1ccc(OCCCN2CC=C(c3ccc(Cl)cc3)CC2)cc1` [E, N-[4-[3-[4-(4-chloro-phenyl)-3,6-dihydro-2H-pyridin-1-yl]-propoxy]-phenyl]-acetamide], the values for the IC50 in experiment [1] (setting [2]) and in experiment [1] (setting [3]) were 0.2 µM and 88 µM, respectively.
The corresponding values for `CC(=O)Nc1ccc(OCCCN2CC=C(c3ccc(F)cc3)CC2)cc1` [F] are 0.2 µM and 85 µM.
With `CS(=O)(=O)Nc1ccc(OCCN2CC=C(c3ccc(F)cc3)CC2)cc1` [G, N-[4-[2-[4-(4-Fluoro-phenyl)-3,6-dihydro-2H-pyridin-1-yl]-ethoxy]-phenyl]-methanesulfonamide], the IC50 was 0.236 µM in experiment [1] (setting [2]), 24 µM in experiment [1] (setting [3]), 0.8 µM on NMDAR1C--NMDAR2B and above 30 µM at NMDAR1C--NMDAR2A.
For `NC(=O)c1ccc(OCC(O)CN2CC=C(c3ccc(F)cc3)CC2)cc1` (stereo not drawn) [H], the IC50 in experiment [1] (setting [2]) is 0.33 µM; in experiment [1] (setting [3]), 40 µM; at NMDAR1C--NMDAR2B, 0.71 µM; at NMDAR1C--NMDAR2A, above 30 µM.
`CC(=O)Nc1ccc(OCC(O)CN2CC=C(c3ccccc3)CC2)cc1` (stereo not drawn) [I]: the values for the IC50 in experiment [1] (setting [2]) and in experiment [1] (setting [3]) were 0.41 µM and 110 µM, respectively.
For `Nc1ccc(OCCCN2CC=C(c3ccc(F)cc3)CC2)cc1` [J] the same measures were 0.78 µM and 44 µM.
Turning to `COc1ccc(C2=CCN(CCCOc3ccc(NC(C)=O)cc3)CC2)cc1` [K], the IC50 in experiment [1] (setting [2]) was determined as 0.91 µM; in experiment [1] (setting [3]), 76 µM.
As for `CCC(=O)Nc1ccc(OCCCN2CC=C(c3ccc(F)cc3)CC2)cc1` [L], the values for the concentration for half-maximal inhibition (IC50) in experiment [1] (setting [2]) and in experiment [1] (setting [3]) were 1 µM and 110 µM, respectively.
The corresponding values for `OC(COc1ccccc1)CN1CC=C(c2ccccc2)CC1` (stereo not drawn) [M] are 1.75 µM and 102 µM.
For `CC(=O)c1ccc(OCCCN2CC=C(c3ccccc3)CC2)cc1` [O] the same measures were 7.5 µM and 298 µM.
The corresponding values for `OC(COc1ccc2c(c1)CCC2)CN1CC=C(c2ccc(F)cc2)CC1` (stereo not drawn) [compound N] are 1.96 µM and 258 µM.
